In article PMC11855827, “High-Throughput Screening of Five Compound Libraries for Anthelmintic Activity and Toxicity Leads to the Discovery of Two Flavonoid Compounds” (International Journal of Molecular Sciences, 2025):
Like-named read-outs stand apart in the source and are kept apart here. *1 amine or outer side, *2 acyl side, *3 side chain or, on linkers, in order; H or OH if unused. Where a SMILES comes first, the peptide text is derived from it. Bridges are numbered along the chain shown (N, C = ends). [ ]: non-standard residue; d: D form. The star is where a group is joined. pTerphenylCO(4''-OnC5H11) = CCCCCOc1ccc(-c2ccc(-c3ccc(C(=O)*)cc3)cc2)cc1; Orn(4R-OH,5R-OH) = O=C([C@H](C[C@@H](O)[C@@H](O)N[*:3])N[*:1])[*:2]; hTyr(3S-OH,4S-OH) = N[C@H](C(=O)O)[C@H](O)[C@@H](O)c1ccc(O)cc1; Pro(3S-OH,4S-Me) = C[C@H]1CN[C@H](C(=O)O)[C@H]1O; Hyp = O=C(O)[C@@H]1C[C@@H](O)CN1

Test system: C. elegans
Assay: microbe, parasite or virus in culture
Conditions: Caenorhabditis elegans
[1] = 0 h, read-out: Percentage of motility inhibition 0 h, Table S2, C. elegans SS assay, 110 μM, 0 h, averages of 4 data points
[2] = 24 h, read-out: Percentage of motility inhibition 24 h, Table S2, C. elegans SS assay, 110 μM, 24 h, averages of 4 data points
[3] = 0 h, read-out: Percentage of motility inhibition 0 h
[4] = 24 h, read-out: Percentage of motility inhibition 24 h
[5] = 0 h, read-out: Inhibition (%) 110 μM (0 h), C. elegans L4 motility, 110 μM, 0 h, mean ± SD of four experiments
[6] = 24 h, read-out: Inhibition (%) 110 μM (24 h), C. elegans L4 motility, 110 μM, 24 h, mean ± SD of four experiments

Structure (SMILES) | inhibition at 110 µM [1] [%] | inhibition at 110 µM [2] [%] | other results
O=c1c2ccccc2nc2n1CCc1c-2[nH]c2ccccc12 [Rutaecarpine] | 0 | 24 | 
C[C@@H]1O[C@@H](O[C@H]2[C@H](O[C@H]3CO[C@@H](O[C@H]4CC[C@]5(C)[C@H]6CC[C@]78OC[C@@]9(CC[C@](C)(C=O)C[C@H]97)[C@H](O)C[C@@]8(C)[C@]6(C)CC[C@H]5C4(C)C)[C@H](O[C@@H]4O[C@H](CO)[C@@H](O)[C@H](O)[C@H]4O)[C@H]3O)O[C@H](CO)[C@@H](O)[C@@H]2O)[C@H](O)[C@H](O)[C@H]1O [Ardisiacrispin B] | 16 | 0 | 
CC(C)c1nc(CN(C)C(=O)N[C@H](C(=O)N[C@@H](Cc2ccccc2)C[C@H](O)[C@H](Cc2ccccc2)NC(=O)OCc2cncs2)C(C)C)cs1 [Ritonavir] | 2 | 0 | 
CN(CC(=O)O)C(=N)N [Creatine] | 4 | 9 | 
CC(=O)O[C@H]1C(=O)[C@@]2(C)[C@H]([C@H](OC(=O)c3ccccc3)[C@]3(O)C[C@H](O)C(C)=C1C3(C)C)[C@]1(OC(C)=O)CO[C@@H]1C[C@@H]2O [Baccatin III] | 0 | 0 | 
CCc1cc(C(N)=S)ccn1 [Ethionamide] | 64 | 12 | 
CC(=O)O[C@H]1C[C@H](O[C@H]2[C@@H](O)C[C@H](O[C@H]3[C@@H](O)C[C@H](O[C@H]4CC[C@@]5(C)[C@H](CC[C@@H]6[C@@H]5C[C@@H](O)[C@]5(C)[C@@H](C7=CC(=O)OC7)CC[C@]65O)C4)O[C@@H]3C)O[C@@H]2C)O[C@H](C)[C@H]1O[C@@H]1O[C@H](CO)[C@@H](O)[C@H](O)[C@H]1O [Lanatoside C] | 0 | 2 | 
CCCc1cc(C(N)=S)ccn1 [Prothionamide] | 44 | 7 | 
C=C(C)[C@@H]1CC[C@]2(COC(C)=O)CC[C@]3(C)[C@H](CC[C@@H]4[C@@]5(C)CC[C@H](OC(C)=O)C(C)(C)[C@@H]5CC[C@]43C)[C@@H]12 [Betulin diacetate] | 11 | 0 | 
CCCCN(CCCC)CC(O)c1cc(Cl)cc2c1-c1ccc(Cl)cc1/C2=C/c1ccc(Cl)cc1 (stereo not drawn) [Lumefantrine] | 0 | 0 | 
COc1cc(O)c2c(=O)c(OC)c(-c3ccc(OC)c(O)c3)oc2c1 [Ayanin] |  |  | inhibition at 110 µM [3]: 0%; inhibition at 110 µM [4]: 22%
Cc1ncc([N+](=O)[O-])n1C [Dimetridazole] | 0 | 14 | 
CC[C@H]1OC(=O)[C@H](C)[C@@H](O[C@H]2C[C@@](C)(OC)[C@@H](O)[C@H](C)O2)[C@H](C)[C@@H](O[C@@H]2O[C@H](C)C[C@H](N(C)C)[C@H]2O)[C@](C)(OC)C[C@@H](C)C(=O)[C@H](C)[C@@H](O)[C@]1(C)O [Clarithromycin] | 12 | 10 | 
COC(=O)C1=CO[C@@H](O)[C@@H]2C(CO)=CC[C@H]12 [Genipin] | 0 | 0 | 
O=C(Nc1ccc(Oc2ccc(Cl)cc2)c(Cl)c1)c1cc(I)cc(I)c1O [Rafoxanide] | 8 | 1 | 
CC(C)NCC(O)COc1cccc2ccccc12 (stereo not drawn) [Propranolol, reference compound] | 0 | 0 | inhibition at 110 µM [5]: 84%; inhibition at 110 µM [6]: 35%
CCS(=O)(=O)CCn1c([N+](=O)[O-])cnc1C [Tinidazole] | 25 | 8 | 
CC(C)(C)C(=O)OCOP(=O)(COCCn1cnc2c(N)ncnc21)OCOC(=O)C(C)(C)C [Adefovir dipivoxil] | 28 | 14 | 
C[C@@H]1O[C@@H](O[C@H]2[C@H](O[C@H]3CC[C@@]4(C)[C@@H](CC[C@]5(C)[C@@H]4CC=C4[C@@H]6CC(C)(C)CC[C@]6(C(=O)O)CC[C@]45C)[C@]3(C)CO)OC[C@H](O)[C@@H]2O)[C@H](O)[C@H](O)[C@H]1O [alpha-Hederin] |  |  | inhibition at 110 µM [3]: 6%; inhibition at 110 µM [4]: 0%
Cc1ccnc2c1NC(=O)c1cccnc1N2C1CC1 [Nevirapine] | 10 | 6 | 
NC(=O)c1ncn([C@@H]2O[C@H](CO)[C@@H](O)[C@H]2O)c1O [Mizoribine] | 28 | 29 | 
COC(=O)c1cccnc1 [Methyl nicotinate] |  |  | inhibition at 110 µM [3]: 0%; inhibition at 110 µM [4]: 0%
CC(=O)OCC(CCn1cnc2cnc(N)nc21)COC(C)=O [Famciclovir] | 15 | 2 | 
c1ccc2c(c1)[nH]c1cnccc12 [Norharmane] | 0 | 9 | 

Structure (SMILES) | inhibition at 110 µM [1] [%] | inhibition at 110 µM [2] [%] | other results
C/C(=C\CC[C@@H](C)[C@H]1CC[C@@]2(C)C3=C(CC[C@]12C)[C@@]1(C)CCC(=O)C(C)(C)[C@@H]1CC3=O)C(=O)O [Ganoderic acid DM] |  |  | inhibition at 110 µM [3]: 6%; inhibition at 110 µM [4]: 1%
CC(CC(=O)C[C@@H](C)[C@H]1CC(=O)[C@@]2(C)C3=C(C(=O)[C@@H](O)[C@]12C)[C@@]1(C)CC[C@H](O)C(C)(C)[C@@H]1C[C@@H]3O)C(=O)O (stereo partly drawn) [Ganoderic acid G] | 0 | 3 | 
O=c1cc(-c2ccccc2)oc2ccccc12 [Flavone] | 0 | 5 | 
C=C1C(=O)O[C@@H]2O[C@@]3(C)CC[C@H]4[C@H](C)CC[C@@H]1[C@@]24OO3 [Artemisitene] | 0 | 9 | 
O=C1c2c(O)cc(O)cc2O[C@H](c2cc(O)c(O)c(O)c2)[C@H]1O [Dihydromyricetin] | 33 | 16 | 
O=C(O)c1cc(O)c(O)c(O)c1 [Gallic acid] | 66 | 34 | 
Cc1cc(C)c(Nc2ccnc(Nc3ccc(C#N)cc3)n2)c(C)c1 [Dapivirine] | 44 | 4 | 
Oc1c(Br)cc(Br)c2cccnc12 [Broxyquinoline] | 0 | 8 | 
CCCCCOc1ccc(-c2ccc(-c3ccc(C(=O)N[C@H]4C[C@@H](O)[C@@H](O)NC(=O)[C@@H]5[C@@H](O)[C@@H](C)CN5C(=O)[C@H]([C@@H](C)O)NC(=O)[C@H]([C@H](O)[C@@H](O)c5ccc(O)cc5)NC(=O)[C@@H]5C[C@@H](O)CN5C(=O)[C@H]([C@@H](C)O)NC4=O)cc3)cc2)cc1 [Anidulafungin] ({pTerphenylCO(4''-OnC5H11)}-[Orn(4R-OH,5R-OH)]T[Hyp][hTyr(3S-OH,4S-OH)]T[Pro(3S-OH,4S-Me)]; lactam 1-C) | 54 | 61 | 
Nc1ccn(C[C@@H](CO)OCP(=O)(O)O)c(=O)n1 [Cidofovir] | 15 | 3 | 
CC(C)(O)/C=C/C(=O)[C@](C)(O)[C@H]1[C@H](O)C[C@@]2(C)[C@@H]3CC=C4[C@@H](C=C(O)C(=O)C4(C)C)[C@]3(C)C(=O)C[C@]12C [Cucurbitacin I] | 0 | 23 | 
CN1CCCN=C1/C=C/c1cccs1 [Pyrantel pamoate, reference compound] |  |  | inhibition at 110 µM [5]: 94%; inhibition at 110 µM [6]: 18 ± 18%
C[C@@H]1C[C@@H](O)[C@@]2(O)[C@@]13C[C@@H](OC(=O)[C@H]3O)[C@](C)(O)[C@@]21COC1=O [Anisatin] | 0 | 20 | 
O=c1c(O)c(-c2cc(O)c(O)c(O)c2)oc2cc(O)cc(O)c12 [Myricetin] |  |  | inhibition at 110 µM [3]: 30%; inhibition at 110 µM [4]: 7%
CN(C)c1cc(NC(=O)CNC(C)(C)C)c(O)c2c1C[C@H]1C[C@H]3[C@H](N(C)C)C(O)=C(C(N)=O)C(=O)[C@@]3(O)C(O)=C1C2=O [Tigecycline] | 31 | 19 | 
C=CC1=C(C)c2cc3[nH]c(cc4nc(cc5[nH]c(cc1n2)c(C)c5CCC(=O)O)C(CCC(=O)O)=C4C)c(C)c3C=C [Protoporphyrin IX] | 3 | 17 | 
COC(=O)[C@@]12OC[C@]34[C@H]([C@@H](O)[C@@H]1O)[C@@]1(C)CC(=O)C(O)=C(C)[C@@H]1C[C@H]3OC(=O)[C@H](OC(=O)/C=C(\C)C(C)C)[C@@H]24 [Bruceantin] | 24 | 69 | 
C=C(C)[C@@H]1CC[C@]2(C)CC[C@]3(C)[C@H](CC[C@@H]4[C@@]5(C)CC[C@H](O)C(C)(C)[C@@H]5CC[C@]43C)[C@@H]12 [Lupeol] | 0 | 0 | 
CCN1C[C@]2(COC)CC[C@H](O)[C@]34C1[C@@](O)([C@@H](OC)[C@H]23)[C@@]1(O)C[C@H](OC)[C@H]2C[C@@H]4[C@@H]1[C@H]2OC [Delsoline] | 5 | 0 | 
COc1nccnc1NS(=O)(=O)c1ccc(N)cc1 [Sulfalene] | 2 | 15 | 
COc1cc2c(cc1OC)[C@@H]1C(=O)c3ccc4c(c3O[C@@H]1CO2)C=CC(C)(C)O4 [Deguelin] | 0 | 0 | 
Cc1cccc(C)c1NC(=O)c1ccccc1C(=O)O [Ftaxilide] | 18 | 10 | 
O=C(O)C1=CO[C@@H](O[C@@H]2O[C@H](CO)[C@@H](O)[C@H](O)[C@H]2O)[C@@H]2C(CO)=CC[C@H]12 [Geniposidic acid] | 0 | 3 | 
